Consider 14 compounds from patent publication US20160039880A1 (priority 2012, published 2016).

Bounds are passed on as bounds.

The target in one series is Human recombinant cyclophilin A (Cyp A) (Homo sapiens, UniProt P62937).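 Note: cis to trans isomerization of SUC-AAPF-pNA by 2 nM enzyme, read as absorbance at 330 nm over 300 s at 10 °C, catalytic rate corrected for uncatalyzed background.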
Chain of Human recombinant cyclophilin A (Cyp A) (P62937 whole entry): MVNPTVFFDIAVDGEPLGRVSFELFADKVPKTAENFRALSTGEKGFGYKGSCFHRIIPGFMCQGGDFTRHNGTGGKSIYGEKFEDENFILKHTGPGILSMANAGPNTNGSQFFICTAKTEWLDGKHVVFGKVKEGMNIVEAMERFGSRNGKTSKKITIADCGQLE
Assay: not given
Settings: not given
With `CC[C@H]1NC(=O)[C@@H]([C@H](O)[C@H](C)CCN(C)CC2COCCO2)N(C)C(=O)[C@@H](C(C)C)N(C)C(=O)[C@@H](CC(C)C)N(C)C(=O)[C@@H](CC(C)C)N(C)C(=O)[C@H](C)NC(=O)[C@@H](C)NC(=O)[C@@H](CC(C)C)N(C)C(=O)[C@@H](C(C)C)NC(=O)[C@H](CC(C)C)N(C)C(=O)[C@@H](C)N(C)C1=O` (stereo partly drawn) [Compound AJ, [(3R,4R,5S)-4-Hydroxy-3-methyl-5-(methylamino)-1-(1,4-dioxan-2-ylmethyl)methylamino-hexanoic acid]^1[(R)-methyl-Sar]^3 cyclosporin A], the Ki amounted to 12 nM. Regarding `CCC1NC(=O)C(C(O)C(C)CCNCCc2c[nH]cn2)N(C)C(=O)C(C(C)C)N(C)C(=O)C(CC(C)C)N(C)C(=O)C(CC(C)C)N(C)C(=O)C(C)NC(=O)C(C)NC(=O)C(CC(C)C)N(C)C(=O)C(C(C)C)NC(=O)C(CC(C)C)N(C)C(=O)C(C)N(C)C1=O` [Compound AK, [(3R,4R,5S)-4-Hydroxy-3-methyl-5-(methylamino)-1-(2-{1H-imidazol-4-yl}-ethylamino)-hexanoic acid]^1[(R)-methyl-Sar]^3 cyclosporin A], the Ki is 42 nM. On to `CC(C)CC1C(=O)NC(C(C)C)C(=O)N(C)C(CC(C)C)C(=O)NC(C)C(=O)NC(C)C(=O)N(C)C(CC(C)C)C(=O)N(C)C(CC(C)C)C(=O)N(C)C(C(C)C)C(=O)N(C)C(C(O)C(C)CCN2CCOCC2)C(=O)NC(C(C)C)C(=O)N(C)CC(=O)N1C` [Compound AN, [(3R,4R,5S)-4-(hydroxy-3-methyl-5-(methylamino)-1-N-morpholino-hexanoic acid]^1 cyclosporin D], for which the Ki came out at 15 nM. Same read-out and setting: in the case of `CCC1NC(=O)C(C(O)C(C)CCN2CCCN(C)CC2)N(C)C(=O)C(C(C)C)N(C)C(=O)C(CC(C)C)N(C)C(=O)C(CC(C)C)N(C)C(=O)C(C)NC(=O)C(C)NC(=O)C(CC(C)C)N(C)C(=O)C(C(C)C)NC(=O)C(CC(C)C)N(C)C(=O)C(C)N(C)C1=O` [Compound EG, [[(3R,4R,5S)-4-Hydroxy-3-methyl-5-(methylamino)-1-(4-methyl-[1,4]diazepan-1-yl)-hexanoic acid]^1[(R)-methyl-Sar]^3 cyclosporin A] it was 8.2 nM; in that of `CCC1NC(=O)C(C(O)C(C)CCN2CC(OC)C2)N(C)C(=O)C(C(C)C)N(C)C(=O)C(CC(C)C)N(C)C(=O)C(CC(C)C)N(C)C(=O)C(C)NC(=O)C(C)NC(=O)C(CC(C)C)N(C)C(=O)C(C(C)C)NC(=O)C(CC(C)C)N(C)C(=O)C(C)N(C)C1=O` [Compound EH, [[(3R,4R,5S)-4-Hydroxy-1-(3-methoxy-azetidin-1-yl)-3-methyl-5-(methylamino)-hexanoic acid]^1[(R)-methyl-Sar]^3 cyclosporin A], 17 nM. Turning to `CCC1NC(=O)C(C(O)C(C)CCCN2CCOCC2)N(C)C(=O)C(C(C)C)N(C)C(=O)C(CC(C)C)N(C)C(=O)C(CC(C)C)N(C)C(=O)C(C)NC(=O)C(C)NC(=O)C(CC(C)C)N(C)C(=O)C(C(C)C)NC(=O)C(CC(C)C)N(C)C(=O)CN(C)C1=O` [Compound EI, [(4R,5R,6S)-5-Hydroxy-4-methyl-6-(methylamino)-1-(morpholin-4-yl)-heptanoic acid]^1 cyclosporin A], the Ki turned out to be 14 nM.

Consider `CC[C@H]1NC(=O)[C@@H]([C@H](O)[C@H](C)CCN2CCOCC2)N(C)C(=O)[C@@H](C(C)C)N(C)C(=O)[C@@H](CC(C)C)N(C)C(=O)[C@@H](CC(C)C)N(C)C(=O)[C@H](C)NC(=O)[C@@H](C)NC(=O)[C@@H](CC(C)C)N(C)C(=O)[C@@H](C(C)C)NC(=O)[C@H](CC(C)C)N(C)C(=O)[C@@H](C)N(C)C1=O` [Compound F, [(3R,4R,5S)-4-(hydroxy)-3-methyl-5-(methylamino)-1-(morpholin-4-yl)hexanoic acid]^1[(R)-Me-Sar]^3 cyclosporin A], for which the Ki was 4.5 nM. Consider `CC[C@H]1NC(=O)[C@@H]([C@H](O)[C@H](C)CCN2CCSCC2)N(C)C(=O)[C@@H](C(C)C)N(C)C(=O)[C@@H](CC(C)C)N(C)C(=O)[C@@H](CC(C)C)N(C)C(=O)[C@H](C)NC(=O)[C@@H](C)NC(=O)[C@@H](CC(C)C)N(C)C(=O)[C@@H](C(C)C)NC(=O)[C@H](CC(C)C)N(C)C(=O)[C@@H](C)N(C)C1=O` [Compound J, [(3R,4R,5S)-4-Hydroxy-3-methyl-5-(methylamino)-1-(thiomorpholino)-hexanoic acid]^1[(R)-Me-Sar]^3 cyclosporin A], for which the inhibition constant Ki is 3.7 nM. Same read-out and setting: in the case of `CC[C@H]1NC(=O)[C@@H]([C@H](O)[C@H](C)CCN2CCN(C)CC2)N(C)C(=O)[C@@H](C(C)C)N(C)C(=O)[C@@H](CC(C)C)N(C)C(=O)[C@@H](CC(C)C)N(C)C(=O)[C@H](C)NC(=O)[C@@H](C)NC(=O)[C@@H](CC(C)C)N(C)C(=O)[C@@H](C(C)C)NC(=O)[C@H](CC(C)C)N(C)C(=O)[C@@H](C)N(C)C1=O` [Compound L, [(3R,4R,5S)-4-hydroxy-3-methyl-5-(methylamino)-1-(4-methylpiperazino)-hexanoic acid]^1[(R)-Me-Sar]^3 cyclosporin A] it was 7.3 nM; in that of `CC[C@H]1NC(=O)[C@@H]([C@H](O)[C@H](C)CCN2CCN(C)CC2)N(C)C(=O)[C@@H](C(C)C)N(C)C(=O)[C@@H](CC(C)C)N(C)C(=O)[C@@H](CC(C)C)N(C)C(=O)[C@H](C)NC(=O)[C@@H](C)NC(=O)[C@@H](CC(C)C)N(C)C(=O)[C@@H](C(C)C)NC(=O)[C@H](CC(C)C)N(C)C(=O)CN(C)C1=O` [Compound LL], 46 nM. Turning to `CC[C@H]1NC(=O)[C@@H]([C@H](O)[C@H](C)CCN2CCNC(=O)C2)N(C)C(=O)[C@@H](C(C)C)N(C)C(=O)[C@@H](CC(C)C)N(C)C(=O)[C@@H](CC(C)C)N(C)C(=O)[C@H](C)NC(=O)[C@@H](C)NC(=O)[C@@H](CC(C)C)N(C)C(=O)[C@@H](C(C)C)NC(=O)[C@H](CC(C)C)N(C)C(=O)[C@@H](C)N(C)C1=O` [Compound N, [(3R,4R,5S)-4-hydroxy-3-methyl-5-(methylamino)-1-(N-3-piperazinone)-hexanoic acid]^1[(R)-Me-Sar]^3 cyclosporin A], the Ki was 6.1 nM. Take `CC[C@H]1NC(=O)[C@@H]([C@H](O)[C@H](C)CCN2CCNC(=O)C2)N(C)C(=O)[C@@H](C(C)C)N(C)C(=O)[C@@H](CC(C)C)N(C)C(=O)[C@@H](CC(C)C)N(C)C(=O)[C@H](C)NC(=O)[C@@H](C)NC(=O)[C@@H](CC(C)C)N(C)C(=O)[C@@H](C(C)C)NC(=O)[C@H](CC(C)C)N(C)C(=O)CN(C)C1=O` [Compound NN]: the Ki is 120 nM. For `CC[C@H]1NC(=O)[C@@H]([C@H](O)[C@H](C)CCN2CCS(=O)(=O)CC2)N(C)C(=O)[C@@H](C(C)C)N(C)C(=O)[C@@H](CC(C)C)N(C)C(=O)[C@@H](CC(C)C)N(C)C(=O)[C@H](C)NC(=O)[C@@H](C)NC(=O)[C@@H](CC(C)C)N(C)C(=O)[C@@H](C(C)C)NC(=O)[C@H](CC(C)C)N(C)C(=O)[C@@H](C)N(C)C1=O` [Compound P, [(3R,4R,5S)-4-Hydroxy-3-methyl-5-(methylamino)-1-(1,1-dioxo-thiomorpholino)-hexanoic acid]^1[(R)-Me-Sar]^3 cyclosporin A], the Ki came out at 3.2 nM. For “[(3R,4R,5S)-4-Hydroxy-3-methyl-5-(methylamino)-1-2-(N,N-diethylamino)ethoxy-hexanoic acid]^1[(S)-thio-isopropyl-Sar]^3 cyclosporin A [Compound AL]”, the Ki stood at 27 nM.

Test system in the next series: not listed separately
Kind of series: Water Solubility Assay (measured in pH 7.8 buffer).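 Note: precipitation onset detected as rise in absorbance at 650 nm across increasing concentrations, after shaking for 18 h, blank wells receiving DMSO only.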 To be noted: pH 7.8; read-out: Water Solubility Assay. It is filed as physicochemical.
On to `CCC1NC(=O)C(C(O)C(C)CCN2CCCN(C)CC2)N(C)C(=O)C(C(C)C)N(C)C(=O)C(CC(C)C)N(C)C(=O)C(CC(C)C)N(C)C(=O)C(C)NC(=O)C(C)NC(=O)C(CC(C)C)N(C)C(=O)C(C(C)C)NC(=O)C(CC(C)C)N(C)C(=O)C(C)N(C)C1=O` [Compound EG, [[(3R,4R,5S)-4-Hydroxy-3-methyl-5-(methylamino)-1-(4-methyl-[1,4]diazepan-1-yl)-hexanoic acid]^1[(R)-methyl-Sar]^3 cyclosporin A], for which the solubility at 18 h is given as greater than 100 µM. Same read-out and setting: the figure for `CCC1NC(=O)C(C(O)C(C)CCN2CC(OC)C2)N(C)C(=O)C(C(C)C)N(C)C(=O)C(CC(C)C)N(C)C(=O)C(CC(C)C)N(C)C(=O)C(C)NC(=O)C(C)NC(=O)C(CC(C)C)N(C)C(=O)C(C(C)C)NC(=O)C(CC(C)C)N(C)C(=O)C(C)N(C)C1=O` [Compound EH, [[(3R,4R,5S)-4-Hydroxy-1-(3-methoxy-azetidin-1-yl)-3-methyl-5-(methylamino)-hexanoic acid]^1[(R)-methyl-Sar]^3 cyclosporin A] is greater than 100 µM.

One may read the Ki as a dissociation constant, usually derived from enzyme kinetics or from competition with a known ligand. The term solubility denotes how much of the substance goes into solution per volume.
